{
  "source": "paper PMC3622158",
  "about": "(Photochemistry and photobiology, 2013)",
  "key": {"red blood cells (RBCs) [1]": {"system": "red blood cells (RBCs)", "assay": "Fluorescence and bright field microscopy of RBCs and ghosts", "type": "cell-based", "conditions": "Figure 2A; for association with RBCs prior to irradiation (fluorescence distribution): RBCs incubated with compound, fluorescence microscopy; for morphology of RBCs incubated with compound before irradiation: bright field microscopy"}, "[2]": {"conditions": "in aqueous solution; standards of the RNO assay; cited from earlier work"}, "red blood cells (RBCs) [3]": {"system": "red blood cells (RBCs)", "assay": "Photohemolysis assay of fluorescently labeled CPPs", "type": "cell-based", "conditions": "singlet oxygen quencher/inhibitor added to TMR-TAT and RBCs; Figure 1B"}, "red blood cells (RBCs) [4]": {"system": "red blood cells (RBCs)"}},
  "data": [
    {"compound": "CC1=C(CCC(=O)O)c2cc3[nH]c(cc4nc(cc5[nH]c(cc1n2)c(C)c5C(C)O)C(C)=C4C(C)O)c(C)c3CCC(=O)O", "note": "(stereo not shown) [HP, hematoporphyrin]", "values": [
      {"measurement": "association with RBCs prior to irradiation (fluorescence distribution)", "setting": "red blood cells (RBCs) [1]", "result": "strong fluorescence signals were present on the surface of the cells"},
      {"measurement": "morphology of RBCs incubated with compound before irradiation", "setting": "red blood cells (RBCs) [1]", "result": "formed echinocytes"}
    ]},
    {"compound": "O=C1OC2(c3cc(I)c(O)c(I)c3Oc3c2cc(I)c(O)c3I)c2c(Cl)c(Cl)c(Cl)c(Cl)c21", "note": "[RB, Rose Bengal]", "values": [
      {"measurement": "singlet oxygen quantum yield", "setting": "[2]", "result": 0.76},
      {"measurement": "association with RBCs prior to irradiation (fluorescence distribution)", "setting": "red blood cells (RBCs) [1]", "result": "strong fluorescence signals were present on the surface of the cells"},
      {"measurement": "morphology of RBCs incubated with compound before irradiation", "setting": "red blood cells (RBCs) [1]", "result": "formed echinocytes"}
    ]},
    {"compound": "CC(/C=C/C=C(\\C)C(=O)O)=C\\C=C\\C=C(C)\\C=C\\C=C(/C)C(=O)O", "note": "[crocetin]", "values": [
      {"measurement": "effect on TMR-TAT mediated photohemolysis", "setting": "red blood cells (RBCs) [3]", "result": "significant decrease in photohemolytic activity"}
    ]},
    {"compound": "O=C1OC2(c3ccccc31)c1cc(Br)c(O)c(Br)c1Oc1c2cc(Br)c(O)c1Br", "note": "[eosin Y]", "values": [
      {"measurement": "singlet oxygen quantum yield", "setting": "[2]", "result": 0.57}
    ]},
    {"compound": "CC(=O)Oc1c(C)c(C)c2c(c1C)CCC(C)(CCC[C@H](C)CCC[C@H](C)CCCC(C)C)O2", "note": "(stereo partly drawn) [tocopherol, α-tocopheryl acetate]", "values": [
      {"measurement": "effect on TMR-TAT mediated photohemolysis", "setting": "red blood cells (RBCs) [3]", "result": "significant decrease in photohemolytic activity"}
    ]},
    {"compound": "GRRRRRRRRR-NH2 [R9]", "values": [
      {"measurement": "lysis with RB and peptide co-incubated", "setting": "red blood cells (RBCs) [4]; RB and R9 co-incubated during irradiation, same conditions, data not shown", "result": "93±3", "unit": "%"},
      {"measurement": "lytic effect of peptides alone", "setting": "red blood cells (RBCs) [4]; in the dark or when cells were irradiated without RB present", "result": "not lytic by themselves"}
    ]}
  ]
}
